Like-named read-outs stand apart in the source and are kept apart here.
Experiments:
SQ20B = assay: Clonogenic survival of SQ20B with chelerythrine chloride and adriamycin; format: cell-based, human
SQ-20B cells = assay: DAPI staining of cell and nuclear morphology (apoptosis); format: cell-based, human; conditions: 5 μM chelerythrine, 72 h following treatment
Protocol: DAPI was used to visualize nuclei […] and overlaid to the phase contrast image. Left, untreated control cells, right 5 μM chelerythrine treated cells.
5×10^5 SQ-20B cells were centrifuged at 1000 rpm and resuspended in approximately 100 μl of media. The cell suspension was then […] with 100 μl of DAPI (4′, 6-iamidino-2-phenylindole, Sigma, 1 μg/ml in PBT [PBS+1% Triton X-100]. One drop of this mixture was then placed on a microslide with a coverslip. The cells were viewed by fluorescence microscopy using an Olympus BX-40 microscope with a 100 Watt Mercury lamp, a 16 or 40×Fluorite objective, N.A. 0.75, (Leco #1-UB527) and a UV filter cube (ex 330-385 nm, em 420 nm, wide band pass, Leco #U-M536). Images were photographed using an Optronics cooled low-light video camera (Leco #DEI-470TB) with a 2× coupler (Leco #HR200-CMT). The image was saved to a digital file at 72 dpi for subsequent image processing with Paint Shop Pro 5 (JASC) running on a Windows NT4 workstation.
The inventors examined whether the concentrations of chelerythrine that decrease viability in the MTT assay induce apoptosis of SQ-20B cells. The inventors examined cell and nuclear morphology by DAPI staining (FIG. 3). Following exposure of SQ-20B cells to 5 μM chelerythrine, morphological changes consistent with apoptosis were observed (FIG. 3A) in nearly 100% of the cells 72 h following treatment.

[1] = Acute lethality (LD50), intraperitoneal; conditions: mouse, in vivo; intraperitoneal (IP) in mice; read-out: LD50 (dose causing a 50% mortality)
Protocol: Basal activity of the enzyme (the activity in the absence of Ca^++, phosphatidylserine and dioleine) was not affected. In the present invention, the LD50 (dose causing a 50% mortality) was 20 mg/kg intraperitoneal (IP) in mice.

[2] = test system: MCF7, MCF7ADR, HT29, DaOY and LnCaP cells; assay: MTT cytotoxicity assay, tumor cell line panel; format: cell-based; conditions: Homo sapiens, exposure to drug for 4 h, range over MCF7, MCF7ADR, read-out: ED50 (effective dose required to inhibit the growth by 50% of the cells)
Protocol: (§1) FIG. 2A depicts that MCF7 (closed circle), MCF7ADR (open circle), HT29 (open square), DAOY (closed triangle) and LnCaP (open triangle) cells were exposed to fresh medium containing increasing concentrations of chelerythrine chloride for 4 h. After 6 days (MCF7, MCF7 ADR, HT29), 7 days (DAOY) or 13 days (LnCAP), MTT analysis was performed to determine cell density. Inhibition of cell growth relative to control (zero drug addition) was calculated for each concentration. Each point represents the mean of three determinations. […] Inhibition of cell growth relative to control (zero drug addition) was calculated for each concentration. […]
(§2) Cytotoxicity was evaluated using modifications of a described MTT assay (Hansen et al., 1989). […] A microplate reader set at 570 nm was used to determine the absorbance. Results are expressed as the fraction of the optical density determined for cells treated with drug compared to those treated with vehicle.
(§3) The cytotoxic effects of chelerythrine were evaluated in 9 human tumor cell lines to assess its spectrum of activity. Chelerythrine decreased cell viability as determined by the MTT assay in a dose-dependent manner in MCF7 breast (wt p53)(Blagosklonny et al., 1995), MCF7ADR breast (resistant to adriamycin), HT29 colon (mutant p53)(Shao et al., 1997), DaOY brain (mutant p53)(U et al., 1998), and LnCaP (mutant p53) (Carroll et al., 1993) prostate cells (FIG. 2). […]

SQ-20B xenografts = assay: SQ-20B xenograft tumor growth in nude mice; format: in vivo; conditions: for mean tumor volume: IP
Protocol: Athymic (nude) mice were injected SC in the right hind limb with 5×10^6 SQ20B cells. Tumors were allowed to grow for 8 days at which time treatment was started. Control mice were weighed and injected IP with PBS on days 8, 10, and 12. Treatment group 2 (n=10 were injected once IP on days 8, 10, and 12 with 2.5 mg/kg chelerythrine chloride, treatment group 3 (n=8) were injected once IP on days 8, 10, and 12 with 5 mg/kg chelerythrine chloride, and treatment group 4 (n=8) were injected once IP on days 8, 11 and 14 with 5 mg/kg chelerythrine chloride. Tumor volume was determined on days 8, 10, 13, 15, 17, 21. Each data point represents the mean of 1-3 individual studies +/−SEM. The Mann-Whitney Rank Sum Test (p<0.05) denoted in the graphs by “*”.
SQ-20B (1-5×10^6 tumor cells were injected into the right hind limbs of Sprague-Dawley nude mice (Fredrick Cancer Research Institute, Fredrick Md.). Xenografts were grown for 2-3 wk at which time animals were sorted into treatment groups such that the mean tumor volume was 45 mm^3+/−4.5 mm^3 (SD). At day 0, initial tumor volume was determined by direct measurement with calipers, and tumor volume was deterred and calculated using the equation 1×w^2×0.5 (Hallahan et al., 1995). During treatment tumor volumes were measured twice weekly and are presented as percent of original tumor volume. Data are presented as fractional tumor volume +/−SEM. Significance analyzed using the Mann-Whitney Rank Sum Test (p<0.05) and denoted in the graphs by “*”.
(§4) Control mice (n=12) were weighed and injected IP with PBS on days 8, 10, and 12. To determine the proper injection volume, the weight of a mouse (in grams) was divided by 100, and the resulting number (in μl ) was used. Chelerythrine was dissolved in the corresponding volume of PBS. Mice in treatment group 2 (n=10) were injected IP on days 8, 10, and 12 with […]. Treatment group 3 (n=8) mice revere injected IP on days 8, 11, and 14 with 5 mg/kg chelerythrine chloride. Treatment group 4 mice (n=10) were injected IP on days 8, 11, 14, and 17 with 5 mg/kg chelerythrine chloride. Volume was determined on days 8, 10, 13, 15, 17, 21. Body weight was measured on days 8, 9, 10, 11, 12, 13, 14, 15, 16, 17, 18, 21. Each data point represents the mean of 1-3 individual studies (minimum of 8 mice/treatment groups).
Mice bearing SQ-2QB xenografts (n>8 for all groups) were injected IP with 2.5 mg/kg on days 8, 10, 12 (Group 2, n=10), 5mg/kg on days 8, 10, 12 (Group 3, n=8), and 5 mg/kg on days 8, 11, 14 (Group 4, n=8). […] By day 21, the mean tumor volumes measured 370 mm^3 in control group, 215 mm^3 in group 1, 197 mm^3 in group 2, and 115 mm^3 in group 3. […]

SQ20B cells = assay: MTT cytotoxicity assay, SQ20B, dependence on exposure time; format: cell-based; conditions: Homo sapiens, read-out: ED50 (the source's name)
Protocol: Cytotoxicity was evaluated using modifications of a described MTT assay (Hansen et al., 1989). Briefly, cells growing as a monolayer were plated at a density of 500 cells/well in 96 well-plates and allowed to grow for 24 h. […] 6-13 days after drug treatment, 25 μl of a 5 mg/ml solution of MTT was added to each well followed 4 h later by the addition of 100 μl lysing buffer (20% sodium dodecyl sulfate, 50% N, N-dimethylformamide and 0.8% acetic acid, pH 4.7) for an additional 22 h. A microplate reader set at 570 nm was used to determine the absorbance. Results are expressed as the fraction of the optical density determined for cells treated with drug compared to those treated with vehicle.
as §3, with “2). The effective dose required to inhibit the growth by 50% of the cells (ED50) ranged between 2 and 5 μM upon exposure to drug for 4 h.” for “2).”

L-1210 tumor cells = conditions: cited from earlier work
[3] = Body weight and deaths in treated xenograft-bearing mice; format: in vivo; conditions: 2.5-5 mg/kg IP
Protocol: Mice were weighed on days 8, 9, 10, 11, 12, 13, 14, 15, 16, 17, 18, 21. Symbols represent the mean weight of animals in the representative treatment groups.
as §4
At no time did body weight of any study animal fall below 90% of the initial weight at the beginning of treatment. […] Similar results were obtained in two independent studies.

[4] = test system: SQ-20B, JSQ-3, SCC-35 and SCC61 cells; assay: MTT cytotoxicity assay, oral tumor cell lines; format: cell-based; conditions: Homo sapiens, SQ20B, range over SQ-20B, read-out: ED50 (the source's name)
Protocol: as §1, §2, §3

Row | SMILES | survival (clonogenic) (SQ20B; adriamycin 1 ng/mL alone (0 chelerythrine)) | survival (clonogenic) (SQ20B; adriamycin 10 ng/mL alone (0 chelerythrine)) | survival (clonogenic) (SQ20B; adriamycin 50 ng/mL alone (0 chelerythrine)) | survival (clonogenic) (SQ20B; chelerythrine chloride 2 μM alone (0 ng/mL adriamycin)) | survival (clonogenic) (SQ20B; chelerythrine chloride 4 μM alone (0 ng/mL adriamycin)) | survival (clonogenic) (SQ20B; chelerythrine chloride 6 μM alone (0 ng/mL adriamycin)) | cells with morphological changes consistent with apoptosis (SQ-20B cells) | LD50 [1] | EC50 [2] | percent change in volume of treated tumors compared to control tumors (%T/C) (SQ-20B xenografts; day 21, all treatment groups) | mean tumor volume (SQ-20B xenografts; day 21, group 1 as printed) | mean tumor volume (SQ-20B xenografts; day 21, group 2 as printed) | mean tumor volume (SQ-20B xenografts; day 21, group 3 as printed) | EC50 (SQ20B cells; exposed for 4 h) | EC50 (SQ20B cells; exposed for 8 h) | IC50 (L-1210 tumor cells) | treatment related deaths [3] | body weight relative to the initial weight at the beginning of treatment ([3]; any study animal, at any time) | EC50 [4]
1 | COc1cccc2c1C(=O)c1c(O)c3c(c(O)c1C2=O)C[C@@](O)(C(=O)CO)C[C@@H]3O[C@H]1C[C@H](N)[C@H](O)[C@H](C)O1 [adriamycin, reference compound] | 1.09 | 0.822 | 0.359 |  |  |  |  |  |  |  |  |  |  |  |  |  |  |  | 
2 | COc1ccc2c(c[n+](C)c3c4cc5c(cc4ccc23)OCO5)c1OC [chelerythrine, 1,2-dimethoxy-12-methyl[1,3]benzodioxolo[5,6-c]phenanthridinium] |  |  |  | 0.99 | 0.103 | 0.034 | ~100% | 20 mg/kg | 2 to 5 µM | less than 40% | 215 mm^3 | 197 mm^3 | 115 mm^3 | 3700 nM | 1800 nM | 53 nM | no treatment related deaths | ≥ 90% | 4 to 5.2 µM

Reference: patent publication US6426351B1, “Chelerythrine-based therapies for cancer” (priority 2000, dated 2002)
